The values below come from patent publication US8980926B2, “2-aminoindole compounds and methods for the treatment of malaria” (Genzyme Corporation, priority 2009, dated 2015).

In data set [1] the test system is P. falciparum strain 3D7. Description: In vitro potency against P. falciparum strain 3D7 (SYBR green/DAPI). Conditions: Plasmodium falciparum; for IC50: read-out: Potency (IC50; nM) Plasmodium spp. Pf 3D7; for pIC50: reductions in parasitemia, read-out: IC50 values. Format: cell-based.
Data set [2] relates to P. berghei N-clone. Description: In vivo efficacy against P. berghei in mice (4-day suppressive test, oral). Details: species or system P. berghei in Swiss Albino mice. Conditions: for Average Day of Recrudescence: Study Day; for No. Cured: animals cured/group; for Recrudescence (no. animals/total): no parasites on Day 5 but later regressed; for % Suppression Day 5: vs untreated controls. The text has this:
Because of ethical issues and costs, the acute P. berghei model in rodents is considered the “gold standard” for assessing anti-malarial efficacy in animal models. This model is adapted from Peters' “4-day suppressive test” (Peters, W. 1987. Chemotherapy and Drug Resistance in Malaria, p. 102-115, 2ed, vol. 1. Academic Press, Orlando, Fla.; Peters, W. 1975. The chemotherapy of rodent malaria, XXII. The value of drug-resistant strains of P. berghei in screening for blood schizontocidal activity. Ann Trop Med Parasitol 69:155-171). All studies were conducted in accordance with the Guide for the Care and Use of Laboratory Animals (National-Research-Council. 1996. Guide for the Care and Use of Laboratory Animals. National Academy Press, Washington, D.C.) and the PHS guidelines. Animals were maintained according to NIH guidelines and were allowed to acclimatize for 1 week prior to the commencement of studies. On Day 0, groups of 4-6-week old female Swiss Albino mice (n=5) were infected by tail vein injection with 0.2 ml heparinized blood diluted to contain 1×10^7 N-clone parasites. The aminoindole analogs were formulated in 1.6% lactic acid mixed sodium salt, 1% Tween 80, 9% ethanol and 20% Cerestar (hydroxypropyl β-cyclodextrin; Wacker Chimie) and were administered by oral gavage. […] Animals in the Control-group received vehicle alone. Dose concentration and frequency of dosing were based upon preliminary tolerability/exposure studies. On Day 4 post-infection (5th day of assay) blood was collected by tail-nick, and thin smear microscope slides were prepared and stained using Diff Quick®. Parasitized erythrocytes were counted and compared with the total number of erythrocytes per microscopic field to determine the percent parasitemia. A minimum of 350 erythrocytes were counted. Animals showing no detectable parasites on Day 4 were examined every 2-3 days to determine whether cure was sterile. Animals with no detectable parasites 28 days after cessation of dosing (Study Day 33) were considered cured.

In data set [3] the test system is P. knowlesi strain H1. Description: In vitro potency against P. knowlesi H1 in Rhesus blood cells (3H-hypoxanthine incorporation). Format: cell-based. The note with it: Plasmodium knowlesi, in Macaca mulatta, read-out: Potency (IC50; nM) Plasmodium spp. Pk H1. How it is done: Selected compounds were tested against P. knowlesi H1 strain parasites cultured in Rhesus blood cells as a surrogate for P. vivax infections using the method of Kocken and coworkers (Kocken, C. H., H. Ozwara, A. van der Wel, A. L. Beetsma, J. M. Mwenda, and A. W. Thomas. 2002. Plasmodium knowlesi provides a rapid in vitro and in vivo transfection system that enables double-crossover gene knockout studies. Infect Immun 70:655-660). Briefly, P. knowlesi were cultured in 2% Rhesus macaque erythrocytes (New England Primate Research Center) in RPMI culture media containing 10% Human O+ serum (Interstate Blood Bank). Schizont stage parasites were purified by floatation in 60% Percoll (GE life sciences) and allowed to reinvade to generate a synchronous population of ring stage parasites. Drug assays were performed by plating ring stage parasites at 0.5% parasitemia in triplicate, in RPMI containing 2.5 μg/ml hypoxanthine. Parasites were incubated for 24 hours with serially diluted test compounds. After 24 hours, thin smears were made to confirm that reinvasion had occurred, 0.5 μCi ^3H-labeled hypoxanthine (Perkin Elmer) were added to each well, and parasites were allowed to progress through S-phase to early schizonts. Cells were then harvested via glass filter plates and ^3H incorporation was measured by scintillation counting. Values were normalized to percentage of controls containing no drug, and IC50 values were generated (GraphPad Prism®).

Data set [4] has as its system P. berghei ANKA strain. The experiment in a line: In vitro potency against P. berghei ANKA. The note with it: Plasmodium berghei, read-out: Potency (IC50; nM) Plasmodium spp. Pb ANKA. Format: cell-based.
Data set [5] has as its target T1, hERG (Homo sapiens, UniProt Q12809).
T1 construct: expressed in transfected cells; host or cells: Chinese hamster ovary cells (from the earlier reading's assay name)
The experiment in a line: hERG in Chinese hamster ovary cells. Format: cell-based. (In general: The hERG channel carries a current that helps repolarise heart muscle cells.)

Data set [6] has as its system P. berghei ANKA strain GFP MRA-865. The experiment in a line: In vivo efficacy against P. berghei ANKA GFP in the humanized murine system. Details: species or system P. berghei in mice. Conditions: b.i.d.
The nature of data set [7]: Mammalian cytotoxicity, kidney epithelial. Format: cell-based. The note with it: normal human renal proximal tubule cells; read-out: Selectivity, Mammalian cytotoxicity (IC50; μM) Kidney epithelial.
For data set [8], the system named is P. falciparum Pf3D7^0087/N9. The experiment in a line: In vivo efficacy against P. falciparum in humanized mice. Conditions: b.i.d.
Protocol: Briefly, groups of 3 animals were infected on Day 0 with 2×10^7 P. falciparum parasites and were treated orally once per day for 4 days with 5, 25 and 100 mg/kg/day formulated as described above beginning on Day 3 post infection. In parallel, groups of 3 animals were infected on Day 0 with 1×10^7 parasites on Day 0 and received the same doses beginning 1 hr after infection. Parasitemia was assessed by FACS as previously described (Jiménez-Díaz, M.-B., et al. 2009. Cytometry Part A 75:225-235. In the same humanized murine system, efficacy was also tested against P. berghei, with animals infected on Day 0 (Jimenez-Diaz, M. B., et al. 2005. Cytometry A 67:27-36). Results are shown in Table 5.
A short description of data set [9]: Erythrocyte lysis. Format: cell-based. Conditions: erythrocytes, read-out: Selectivity, Mammalian cytotoxicity (IC50; μM) Eryth. Lysis.
Data set [10] in a line: Mammalian cytotoxicity, dermal fibroblast. Format: cell-based. The note with it: human, normal human dermal fibroblasts (Clonetics #CC-2509); read-out: Selectivity, Mammalian cytotoxicity (IC50; μM) Dermal Fibroblast.
The test system of data set [11] is Plasmodium falciparum strain Dd2. The experiment in a line: In vitro potency against P. falciparum strain Dd2. The note with it: read-out: Potency (IC50; nM) Plasmodium spp. Pf Dd2. Format: cell-based.
Data set [12] has as its system malaria. The experiment in a line: In vivo efficacy in an animal (rodent) model of malaria (FIGS. 1, 2). Conditions: FIG. 1.

pIC50: −log10 of the molar value. Where two headings read alike, the source gives them in different places.

T1 sequence (Q12809 whole entry): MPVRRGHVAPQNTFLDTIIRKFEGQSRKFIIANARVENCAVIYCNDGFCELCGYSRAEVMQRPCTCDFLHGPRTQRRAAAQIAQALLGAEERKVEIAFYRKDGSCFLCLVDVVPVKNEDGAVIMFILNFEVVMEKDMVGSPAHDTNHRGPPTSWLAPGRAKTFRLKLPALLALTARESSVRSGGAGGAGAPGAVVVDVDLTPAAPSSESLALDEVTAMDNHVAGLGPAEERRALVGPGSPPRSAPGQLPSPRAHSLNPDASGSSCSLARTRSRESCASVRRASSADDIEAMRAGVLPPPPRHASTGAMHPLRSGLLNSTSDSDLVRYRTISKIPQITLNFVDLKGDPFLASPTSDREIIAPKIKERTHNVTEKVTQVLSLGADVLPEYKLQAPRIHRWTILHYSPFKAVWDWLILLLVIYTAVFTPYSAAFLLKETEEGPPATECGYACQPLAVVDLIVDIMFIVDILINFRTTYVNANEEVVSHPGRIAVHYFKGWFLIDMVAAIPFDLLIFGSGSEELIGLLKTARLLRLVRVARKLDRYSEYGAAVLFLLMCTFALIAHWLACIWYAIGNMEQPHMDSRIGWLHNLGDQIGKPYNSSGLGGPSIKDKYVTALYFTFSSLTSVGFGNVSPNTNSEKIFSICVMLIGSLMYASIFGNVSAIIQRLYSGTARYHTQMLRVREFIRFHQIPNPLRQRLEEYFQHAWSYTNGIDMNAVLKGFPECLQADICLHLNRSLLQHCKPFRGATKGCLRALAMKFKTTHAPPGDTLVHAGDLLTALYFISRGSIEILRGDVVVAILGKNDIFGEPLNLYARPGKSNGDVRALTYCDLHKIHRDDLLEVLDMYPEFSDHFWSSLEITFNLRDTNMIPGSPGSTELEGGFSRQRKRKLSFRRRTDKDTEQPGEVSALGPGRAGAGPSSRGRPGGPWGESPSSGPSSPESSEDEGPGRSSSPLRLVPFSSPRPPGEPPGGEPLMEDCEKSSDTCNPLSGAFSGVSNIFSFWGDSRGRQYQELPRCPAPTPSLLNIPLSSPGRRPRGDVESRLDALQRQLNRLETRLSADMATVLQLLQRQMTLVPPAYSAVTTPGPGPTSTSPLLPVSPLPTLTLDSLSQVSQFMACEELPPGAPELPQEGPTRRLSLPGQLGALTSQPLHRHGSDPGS

Usually IC50 stands for the concentration that gives 50% inhibition. One may read the pIC50 as the IC50 on a negative log10 scale, so that one unit is a factor of ten. Take `CCOc1ccc(F)cc1[C@@]1(O)C(N)=Nc2ccc(Cl)cc21` (stereo in doubt) [Compound 267]: the IC50 in data set [1] is 28 nM; in [3], 26 nM; in data set [4], 331 nM; in data set [7], greater than 195 µM; in data set [9] it was greater than 125 µM; in data set [10] it was greater than 195 µM. Further, the half-inhibitory concentration (IC50) in data set [11] turned out to be 65 nM. In addition, the pIC50 in data set [1] was 7.00 to 9.00. The “Average Day of Recrudescence” value in data set [2] (100 mg/kg/day b.i.d. p.o.) is 14 days; in data set [2] (200 mg/kg/day b.i.d. p.o.) it was 12 days. In addition, the “No. Cured” value in [2] (100 mg/kg/day b.i.d. p.o.) is reported as 0/5; in data set [2] (200 mg/kg/day b.i.d. p.o.), 3/5. Besides, the results for the “Recrudescence (no. animals/total)” value in data set [2] (100 mg/kg/day b.i.d. p.o.) and in [2] (200 mg/kg/day b.i.d. p.o.) were 2/4 and 2/5, respectively. Further, the results for the “% Suppression Day 5” value in [2] (100 mg/kg/day b.i.d. p.o.) and in data set [2] (200 mg/kg/day b.i.d. p.o.) were 95% and 100%, respectively. For the same molecule, the “ED50 P. berghei N-clone” value in [2] (b.i.d.) is reported as 32 mg/kg/day; in data set [2] (t.i.d.), 35 mg/kg/day. Moreover, the “ED90 P. berghei N-clone” value in data set [2] (b.i.d.) is reported as 68 mg/kg/day; in data set [2] (t.i.d.), 58 mg/kg/day. Moreover, the cures result in data set [2] (doses of 100-200 mg/kg/day) was “able to affect cures”. Moreover, in [5], the “Selectivity, hERG (μM) CHO” value was 36.6 µM. Also, in [6], the “ED50 P. berghei ANKA strain GFP MRA-865” value was determined as 19 mg/kg/day. In data set [6], the “ED90 P. berghei ANKA strain GFP MRA-865” value amounted to 30 mg/kg/day. Moreover, the “ED50 P. falciparum Pf3D7^0087/N9” value in data set [8] is reported as 40 mg/kg/day. In data set [8], the “ED90 P. falciparum Pf3D7^0087/N9” value is recorded as 74 mg/kg/day.

On to `NC1=Nc2ccc(Cl)cc2C1(O)c1ccccc1` (centres unmarked) [Compound 1], for which the IC50 in [1] is 200 nM; in [3] it was 336 nM; in [4] it was 1560 nM; in [7], greater than 242 µM; in [9], greater than 155 µM; in data set [10], greater than 242 µM. Moreover, in [11], the IC50 was found to be 285 nM. Further, the negative-log IC50 (pIC50) in data set [1] is 6.30 to 7.00. Besides, in data set [2] (50 mg/kg/day b.i.d. p.o.), the “Average Day of Recrudescence” value was 13 days. For the same molecule, the “No. Cured” value in [2] (50 mg/kg/day b.i.d. p.o.) was 0/5. Also, the “Recrudescence (no. animals/total)” value in data set [2] (50 mg/kg/day b.i.d. p.o.) was 5/5. The “% Suppression Day 5” value in data set [2] (50 mg/kg/day b.i.d. p.o.) is 100%. Besides, the “Selectivity, hERG (μM) CHO” value in data set [5] was greater than 25 µM. In addition, the “in vivo efficacy (treatment of malaria)” value in data set [12] (50 mg/kg dose, IP administration for four days) was “effectively treated malaria”. For the same molecule, the “in vivo efficacy, dose dependence” value in [12] (IP administration for four days at various doses) is recorded as “dose-response relationship was observed”.
